Experiment: xn = mol fraction of the nth substance listed
Conditions: Liquid, Vibrating tube method

CCCCCCCO [heptan-1-ol] + CCCCOCCCC
mass density [kg/m3]
Conditions | x2 = 0 | x2 = 0.1488 | x2 = 0.3201 | x2 = 0.4944 | x2 = 0.7014 | x2 = 0.8534
333.15 K, 140000 kPa | – | 857.7 | 850.3 | 843.3 | 834.8 | 829
353.15 K, 100 kPa | 778.1 | 768 | 756.6 | 745.6 | 732.4 | 723.4
353.15 K, 1000 kPa | 778.8 | 768.8 | 757.4 | 746.6 | 733.4 | 724.5
353.15 K, 5000 kPa | 782.3 | 772.5 | 761.4 | 750.8 | 738 | 729.4
353.15 K, 10000 kPa | 786.3 | 776.8 | 766 | 755.8 | 743.3 | 735
353.15 K, 15000 kPa | 790.2 | 781 | 770.4 | 760.4 | 748.4 | 740.3
353.15 K, 20000 kPa | 793.9 | 784.8 | 774.5 | 764.8 | 753.1 | 745.2
353.15 K, 25000 kPa | 797.3 | 788.5 | 778.4 | 768.9 | 757.4 | 749.8
353.15 K, 30000 kPa | 800.7 | 792.1 | 782.3 | 772.9 | 761.7 | 754.1
353.15 K, 35000 kPa | 804 | 795.5 | 785.8 | 776.7 | 765.6 | 758.3
353.15 K, 40000 kPa | 807.1 | 798.6 | 789.2 | 780.1 | 769.4 | 762.1
353.15 K, 45000 kPa | 810 | 801.8 | 792.5 | 783.7 | 773 | 765.9
353.15 K, 50000 kPa | 813 | 804.9 | 795.8 | 787.1 | 776.7 | 769.6
353.15 K, 55000 kPa | 815.8 | 807.8 | 798.8 | 790.2 | 779.9 | 773.1
353.15 K, 60000 kPa | 818.6 | 810.7 | 801.8 | 793.3 | 783.2 | 776.5
353.15 K, 65000 kPa | 821.2 | 813.5 | 804.7 | 796.4 | 786.3 | 779.7
353.15 K, 70000 kPa | 823.8 | 816.2 | 807.5 | 799.3 | 789.5 | 782.9
353.15 K, 80000 kPa | 828.7 | 821.2 | 812.8 | 804.8 | 795.2 | 788.8
353.15 K, 90000 kPa | 833.5 | 826.2 | 817.9 | 810.1 | 800.7 | 794.4
353.15 K, 100000 kPa | 837.9 | 830.8 | 822.7 | 815.1 | 805.9 | 799.8
353.15 K, 110000 kPa | 842.3 | 835.3 | 827.4 | 819.9 | 810.9 | 804.9
353.15 K, 120000 kPa | 846.4 | 839.5 | 831.8 | 824.4 | 815.6 | 809.7
353.15 K, 130000 kPa | 850.3 | 843.7 | 836 | 828.7 | 820.1 | 814.2
353.15 K, 140000 kPa | 854.3 | 847.6 | 840.1 | 833 | 824.5 | 818.7
373.15 K, 100 kPa | 761.9 | – | – | – | – | –
373.15 K, 1000 kPa | 762.8 | 752.3 | 740.4 | 729.1 | 715.4 | 706.3
373.15 K, 5000 kPa | 766.6 | 756.5 | 744.8 | 733.9 | 720.7 | 711.9
373.15 K, 10000 kPa | 771.1 | 761.3 | 750 | 739.6 | 726.7 | 718.3
373.15 K, 15000 kPa | 775.5 | 765.9 | 754.9 | 744.8 | 732.4 | 724.2
373.15 K, 20000 kPa | 779.5 | 770.2 | 759.5 | 749.6 | 737.6 | 729.7
373.15 K, 25000 kPa | 783.4 | 774.3 | 763.9 | 754.3 | 742.5 | 734.8
373.15 K, 30000 kPa | 787.1 | 778.1 | 768 | 758.6 | 747.2 | 739.6
373.15 K, 35000 kPa | 790.6 | 781.9 | 772 | 762.7 | 751.6 | 744.1
373.15 K, 40000 kPa | 794 | 785.4 | 775.7 | 766.7 | 755.7 | 748.5
373.15 K, 45000 kPa | 797.2 | 788.9 | 779.3 | 770.5 | 759.7 | 752.7
373.15 K, 50000 kPa | 800.3 | 792.1 | 782.7 | 774 | 763.4 | 756.5
373.15 K, 55000 kPa | 803.4 | 795.2 | 786 | 777.5 | 767.1 | 760.3
373.15 K, 60000 kPa | 806.3 | 798.3 | 789.2 | 780.8 | 770.6 | 763.9
373.15 K, 65000 kPa | 809.2 | 801.3 | 792.3 | 784 | 774 | 767.4
373.15 K, 70000 kPa | 811.9 | 804.1 | 795.3 | 787.1 | 777.2 | 770.6
373.15 K, 80000 kPa | 817.2 | 809.7 | 801.1 | 793.1 | 783.5 | 777.1
373.15 K, 90000 kPa | 822.3 | 814.9 | 806.5 | 798.7 | 789.3 | 783.1
373.15 K, 100000 kPa | 827 | 819.8 | 811.5 | 803.9 | 794.8 | 788.7
373.15 K, 110000 kPa | 831.6 | 824.5 | 816.5 | 809.1 | 800 | 794
373.15 K, 120000 kPa | 835.9 | 829 | 821.1 | 813.8 | 805 | 799.1
373.15 K, 130000 kPa | 840.2 | 833.4 | 825.6 | 818.4 | 809.8 | 803.9
373.15 K, 140000 kPa | 844.1 | 837.4 | 829.8 | 822.8 | 814.3 | 808.6
393.15 K, 100 kPa | 744.9 | – | – | – | – | –
393.15 K, 1000 kPa | 745.8 | 734.9 | 722.5 | 710.7 | 696.6 | 687.4
393.15 K, 5000 kPa | 750.2 | 739.7 | 727.6 | 716.3 | 702.7 | 693.9
393.15 K, 10000 kPa | 755.3 | 745.1 | 733.5 | 722.7 | 709.7 | 701.2
393.15 K, 15000 kPa | 760.1 | 750.3 | 739 | 728.6 | 716 | 708
393.15 K, 20000 kPa | 764.6 | 755.1 | 744.2 | 734 | 721.9 | 714
393.15 K, 25000 kPa | 768.8 | 759.6 | 749 | 739.1 | 727.4 | 719.7
393.15 K, 30000 kPa | 772.9 | 763.8 | 753.5 | 743.9 | 732.4 | 725
393.15 K, 35000 kPa | 776.8 | 767.9 | 757.8 | 748.5 | 737.3 | 730
393.15 K, 40000 kPa | 780.4 | 771.8 | 761.9 | 752.7 | 741.8 | 734.8
393.15 K, 45000 kPa | 783.9 | 775.4 | 765.8 | 756.8 | 746 | 739.1
393.15 K, 50000 kPa | 787.3 | 779 | 769.4 | 760.7 | 750.1 | 743.4
393.15 K, 55000 kPa | 790.7 | 782.5 | 773.2 | 764.5 | 754.2 | 747.5
393.15 K, 60000 kPa | 793.8 | 785.7 | 776.5 | 768 | 757.9 | 751.3
393.15 K, 65000 kPa | 796.8 | 788.9 | 779.8 | 771.4 | 761.5 | 755
393.15 K, 70000 kPa | 799.8 | 792 | 783.1 | 774.9 | 765 | 758.7
393.15 K, 80000 kPa | 805.5 | 797.8 | 789.2 | 781.2 | 771.6 | 765.4
393.15 K, 90000 kPa | 810.9 | 803.5 | 795 | 787.2 | 777.9 | 771.8
393.15 K, 100000 kPa | 815.9 | 808.6 | 800.4 | 792.8 | 783.6 | 777.7
393.15 K, 110000 kPa | 820.8 | 813.7 | 805.6 | 798.2 | 789.3 | 783.5
393.15 K, 120000 kPa | 825.3 | 818.3 | 810.4 | 803.1 | 794.3 | 788.7
393.15 K, 130000 kPa | 829.8 | 822.9 | 815.1 | 808 | 799.4 | 793.8
393.15 K, 140000 kPa | 834 | 827.3 | 819.7 | 812.7 | 804.2 | 798.7

Reference: the NIST ThermoML archive (doi:10.1016/j.jct.2018.11.010)
